Measured values reported in US20230279482A1, “COMPOSITIONS, METHODS AND USES FOR QUANTIFYING TRANSCRIPTION AND BIOSENSING OF SMALL MOLECULES USING A NOVEL TYPE VI CRISPR-CAS ASSAY” (THE REGENTS OF THE UNIVERSITY OF COLORADO, A BODY CORPORATE, priority 2020, published 2023).

Columns and labels:
crcB fluoride riboswitch = test: SPRINT assay with fluoride riboswitch; assay type: biochemical, B. cereus
Description: SPRINT reactions. Pentauridine RNA oligonucleotides were labeled with carboxyfluorescein (FAM) or TEX 615 at the 5′-end and with Iowa Black FQ at the 3′-end. Fluorescence measurements were taken at wavelengths 490/525 nm (excitation/emission) when the FAM fluorophore was used. In reactions with flavin-containing ligands, TEX-labeled RNA oligos were used at the wavelengths 576/615 (excitation/emission). Fluorescence measurements were taken every 5 minutes.
For exemplary SPRINT assays, a master mix was first prepared and then mixed with the remaining reaction reagent components to yield a final reaction volume of 30 μL; fluorescent readings of the entire reaction volume were performed in Corning 384 Flat Bottom Black Polystyrol plates. This master mix (SPRINT buffer, 10×), for assays contemplated herein can include, but is not limited to: 700 mM Tris-HCl, pH 8.0, 700 mM NaCl, 1 mM EDTA, 140 mM β-mercaptoethanol, and 25 mM MgCl2. Aliquots of an exemplary 10× SPRINT buffer were stored at −20° C. and not allowed to undergo more than 10 freeze-thaw cycles.
The B. cereus crcB fluoride riboswitch is a regulatory switch that turns on expression of the fluoride efflux pump crcB via selectively binding fluoride over chloride. […] This may be explained in part by an observed inhibition of the assay at fluoride concentrations above 100 μM. […]

E. coli RNAP = E. coli RNAP (Escherichia coli, UniProt P0A8T7+P0A8V2); test: Two-batch protocol: transcription in presence of fluoride, wash, then Cas13a detection; assay type: biochemical; details: fluoride riboswitch template, FIG. 6C
Description: In another exemplary method, two-batch methods included, 30 μL in vitro transcription reactions carried out as described above but without addition of Cas13a, crRNA, labeled RNA oligos, RNase inhibitor. Then, the reaction was washed three times with 500 μL ddH2O using an centrifugal filter (0.5 ml, 10 kDa cutoff). After concentrating the solution to approximately 20 μL, aliquots of 6 μL were taken and added to a 24 μL of a SHERLOCK reaction (described below).
The B. cereus crcB fluoride riboswitch is a regulatory switch that turns on expression of the fluoride efflux pump crcB via selectively binding fluoride over chloride. […] This may be explained in part by an observed inhibition of the assay at fluoride concentrations above 100 μM. To understand whether this effect stems from inhibition of the E. coli RNAP or inhibition of Cas13a, SHERLOCK reactions without RNAP were conducted at varying concentrations of sodium fluoride (FIG. 6A). […] To measure the response of the RNAP to fluoride, an exemplary two-batch protocol was developed (FIG. 6B) to first transcribe RNA in presence of fluoride, then wash out the fluoride and add the washed transcripts to Cas13a. […] The two-batch assay could also be used to wash out Cas13a-inhibiting compounds after transcription that would otherwise interfere with the assay.

E. coli RNAP, sequence (P0A8V2 whole entry): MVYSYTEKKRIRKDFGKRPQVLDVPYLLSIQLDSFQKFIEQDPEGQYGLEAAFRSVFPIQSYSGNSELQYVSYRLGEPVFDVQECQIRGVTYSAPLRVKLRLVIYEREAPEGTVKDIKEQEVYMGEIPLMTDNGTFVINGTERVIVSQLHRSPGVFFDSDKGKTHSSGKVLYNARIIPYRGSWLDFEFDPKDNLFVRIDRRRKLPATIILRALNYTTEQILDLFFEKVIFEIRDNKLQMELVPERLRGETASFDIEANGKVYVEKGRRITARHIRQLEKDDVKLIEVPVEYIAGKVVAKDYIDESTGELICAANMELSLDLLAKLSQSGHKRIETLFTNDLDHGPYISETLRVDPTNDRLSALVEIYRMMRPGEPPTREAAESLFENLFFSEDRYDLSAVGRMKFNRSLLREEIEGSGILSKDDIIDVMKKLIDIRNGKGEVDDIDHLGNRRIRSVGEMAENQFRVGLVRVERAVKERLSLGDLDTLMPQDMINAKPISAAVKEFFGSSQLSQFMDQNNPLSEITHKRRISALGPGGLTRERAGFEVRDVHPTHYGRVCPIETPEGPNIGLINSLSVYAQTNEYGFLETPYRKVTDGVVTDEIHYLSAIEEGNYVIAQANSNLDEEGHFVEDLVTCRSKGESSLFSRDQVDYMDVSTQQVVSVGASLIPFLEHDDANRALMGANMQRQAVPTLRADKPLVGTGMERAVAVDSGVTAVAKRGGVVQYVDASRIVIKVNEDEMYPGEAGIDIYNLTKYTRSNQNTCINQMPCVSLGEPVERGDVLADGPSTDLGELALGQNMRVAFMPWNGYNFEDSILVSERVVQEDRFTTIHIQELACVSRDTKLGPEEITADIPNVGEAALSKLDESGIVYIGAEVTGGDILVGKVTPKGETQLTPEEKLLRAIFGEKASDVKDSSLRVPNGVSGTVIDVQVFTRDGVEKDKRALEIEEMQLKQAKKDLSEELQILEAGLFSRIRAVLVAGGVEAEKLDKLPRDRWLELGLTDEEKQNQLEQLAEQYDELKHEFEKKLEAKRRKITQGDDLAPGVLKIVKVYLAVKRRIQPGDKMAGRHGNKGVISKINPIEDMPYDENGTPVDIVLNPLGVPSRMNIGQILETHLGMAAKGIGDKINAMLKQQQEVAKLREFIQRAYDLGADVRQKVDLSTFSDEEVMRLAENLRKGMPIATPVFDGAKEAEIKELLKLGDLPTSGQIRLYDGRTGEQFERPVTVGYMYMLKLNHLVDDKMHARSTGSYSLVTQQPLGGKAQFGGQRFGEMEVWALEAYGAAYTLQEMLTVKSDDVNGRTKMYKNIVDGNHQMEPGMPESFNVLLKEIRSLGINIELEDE
E. coli RNAP, sequence (P0A7Z4 whole entry, further chain): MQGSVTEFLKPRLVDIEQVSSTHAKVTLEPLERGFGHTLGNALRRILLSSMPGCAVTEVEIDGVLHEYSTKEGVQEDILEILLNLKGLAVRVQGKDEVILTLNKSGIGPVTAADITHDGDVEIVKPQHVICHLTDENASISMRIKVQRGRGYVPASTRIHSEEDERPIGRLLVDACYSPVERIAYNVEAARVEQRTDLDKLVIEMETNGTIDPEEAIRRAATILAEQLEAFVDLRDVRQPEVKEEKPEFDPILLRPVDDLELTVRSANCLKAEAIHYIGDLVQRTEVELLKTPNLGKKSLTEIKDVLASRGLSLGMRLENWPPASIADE
E. coli RNAP, sequence (P0A800 whole entry, further chain): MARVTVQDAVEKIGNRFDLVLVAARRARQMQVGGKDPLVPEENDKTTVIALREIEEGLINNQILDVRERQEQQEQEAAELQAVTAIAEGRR
E. coli RNAP, sequence (P0A8T7 whole entry): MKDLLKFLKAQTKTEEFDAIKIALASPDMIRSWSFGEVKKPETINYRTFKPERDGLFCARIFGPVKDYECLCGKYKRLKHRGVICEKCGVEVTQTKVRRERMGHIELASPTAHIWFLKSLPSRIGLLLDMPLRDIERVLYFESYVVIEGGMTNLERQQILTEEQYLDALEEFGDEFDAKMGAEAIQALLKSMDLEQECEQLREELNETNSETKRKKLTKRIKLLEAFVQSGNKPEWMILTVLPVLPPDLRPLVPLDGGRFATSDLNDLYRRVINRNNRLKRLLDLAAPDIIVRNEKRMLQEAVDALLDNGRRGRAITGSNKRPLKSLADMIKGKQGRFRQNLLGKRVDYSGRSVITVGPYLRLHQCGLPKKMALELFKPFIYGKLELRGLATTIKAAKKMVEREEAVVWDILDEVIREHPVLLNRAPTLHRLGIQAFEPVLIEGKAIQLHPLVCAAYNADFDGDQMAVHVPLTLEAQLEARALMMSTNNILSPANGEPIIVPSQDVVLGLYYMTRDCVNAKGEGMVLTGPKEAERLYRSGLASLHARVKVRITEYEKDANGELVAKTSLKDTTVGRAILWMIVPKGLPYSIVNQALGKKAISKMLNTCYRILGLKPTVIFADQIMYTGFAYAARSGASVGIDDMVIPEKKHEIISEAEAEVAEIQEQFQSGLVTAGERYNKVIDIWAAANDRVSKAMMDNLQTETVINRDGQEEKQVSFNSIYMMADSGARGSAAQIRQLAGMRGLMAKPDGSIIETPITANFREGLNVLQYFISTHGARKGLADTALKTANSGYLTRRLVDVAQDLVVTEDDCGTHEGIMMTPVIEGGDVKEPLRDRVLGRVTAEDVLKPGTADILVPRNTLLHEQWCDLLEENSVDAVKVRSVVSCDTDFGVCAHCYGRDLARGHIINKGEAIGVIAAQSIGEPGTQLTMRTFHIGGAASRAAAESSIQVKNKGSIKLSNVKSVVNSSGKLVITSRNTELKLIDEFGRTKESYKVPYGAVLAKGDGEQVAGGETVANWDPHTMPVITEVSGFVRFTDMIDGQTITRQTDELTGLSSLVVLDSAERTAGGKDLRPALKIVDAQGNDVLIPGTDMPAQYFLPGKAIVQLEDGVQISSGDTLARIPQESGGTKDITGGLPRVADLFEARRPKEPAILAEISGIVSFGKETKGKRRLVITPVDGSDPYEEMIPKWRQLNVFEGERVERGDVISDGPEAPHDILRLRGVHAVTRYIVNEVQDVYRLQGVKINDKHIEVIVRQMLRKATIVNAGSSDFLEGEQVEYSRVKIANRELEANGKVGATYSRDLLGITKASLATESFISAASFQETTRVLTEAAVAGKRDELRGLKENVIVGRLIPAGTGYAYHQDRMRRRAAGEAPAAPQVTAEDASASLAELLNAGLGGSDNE

With `[F-].[Na+]` [fluoride, sodium fluoride] the EC50 (crcB fluoride riboswitch; FIG. 4C, read-out: T50 value) was 11 ± 1 µM, the “fluoride concentration at which inhibition of the assay is observed” value (crcB fluoride riboswitch; one-batch SPRINT) was “above 100 μM” and the “concentration that drastically reduced transcriptional activity” value (E. coli RNAP) was at least 125 µM. For the same molecule, the “concentration up to which transcription is induced in a linear manner” value (E. coli RNAP) was at most 100 µM.
